Experimental data as given in patent US20250009709A1, “PRENYLATED CHALCONE AND FLAVONOID COMPOSITIONS FOR USE IN TREATING CANCER” (INNOX CORP., priority 2021, published 2025).

Test system: pCrkl
Assay: pCrkl level in K562-IS cells
Format: cell-based
Details: 1000 nM imatinib, data not shown
Method: The effect of the drug substance on chronic myelogenous leukemic (CML) cells was tested using a K562 cell line model.

Cc1ccc(NC(=O)c2ccc(CN3CCN(C)CC3)cc2)cc1Nc1nccc(-c2cccnc2)n1 [imatinib]
pCrkl level in comparison with non-treated controls: did not significantly change
